According to EP1044000B1, “COMBINATION THERAPY FOR THE TREATMENT OF AIDS” (MERCK & CO., INC., priority 1997, dated 1999):

System: wild-type HIV-1
Assay: Cell Spread Assay (described in US 5,646,148)
Type: cell-based
Settings: against wild-type HIV-1

CC(C)(C)NC(=O)[C@@H]1CN(Cc2cccnc2)CCN1C[C@@H](O)C[C@@H](Cc1ccccc1)C(=O)N[C@H]1c2ccccc2C[C@H]1O [Indinavir, N-(2(R)-hydroxy-1(S)-indanyl)-2(R)-phenylmethyl-4-(S)-hydroxy-5-(1-(4-(3-pyridylmethyl)-2(S)-N'-(t-butylcarboxamido)-piperazinyl))-pentaneamide]
CIC95: 50 nM
